Reference: patent US12037355B2, “Triterpene saponin analogues” (priority 2015, dated 2024)

What was measured:
pertussis toxin = assay: Adacel (Tdap vaccine) immunogenicity in mice, anti-PT antibody in serum; type: in vivo; settings: for Antibody levels augmented compared to immunization with Adacel alone: adjuvant with Adacel
hemolysis = assay: Hemolytic assay; type: cell-based
Procedure: (§1) Natural and synthetic QS-21 (SQS-21 or SAPONEX®) and a variety of analogs were tested for hemolytic activity.

Stability at 37° C. = type: physicochemical; settings: for degradation: after two weeks at 37° C.
Procedure: as §1

[1] = Weight loss in Engerix-B / TiterQuil-1055 study; settings: mice
[2] = Companion toxicity study, body mass three days after immunization
Procedure: as §1

[3] = Pilot pharmacology/toxicology study with Adacel, QS-21 and TiterQuil-1055; settings: for changes in blood chemistry or hematology results: SC days 1 and 15, bled day 22 (group 7 day 29); for weight loss (body weight): mice, 50 mcg TiterQuil-1055, 20 mcg QS-21; for liver histopathology (hepatocellular cytoplasmic vacuolization): sacrificed day 22, 33 tissues examined
[4] = cited from earlier work
[5] = groups of 5 mice, 2 weeks after second SC immunization
[6] = groups of 5 mice, 50 mcg TiterQuil-1055, 20 mcg QS-21, Adacel 2.5 mcg pertussis toxin
[7] = 50 mcg TiterQuil-1055, 20 mcg QS-21, Adacel 2.5 mcg pertussis toxin

Compound | Antibody levels (pertussis toxin; 0.5 mcg dose of Adacel, alone or with TiterQuil-1055, groups of 5 mice, 2 weeks after second SC immunization) | Antibody levels 2 weeks later (pertussis toxin; TiterQuil-1055 with Adacel, 2 weeks after the 2-week post-second-immunization bleed) | Antibody levels augmented compared to immunization with Adacel alone (pertussis toxin; [5]) [fold] | hemolytic activity (hemolysis) | stability relative to QS-21 (Stability at 37° C.) | degradation (Stability at 37° C.) | weight loss ([1]; 30 mcg TiterQuil-1055 dose) | weight loss ([1]; 100 mcg TiterQuil-1055 dose) [%] | weight loss ([1]; 300 mcg TiterQuil-1055 dose) [%] | body mass gained on average ([2]; young mice) [%] | changes in blood chemistry or hematology results [3, 6] | weight loss ([3]; groups of 5 mice, SC days 1 and 15, weighed daily, 50 mcg TiterQuil-1055, 20 mcg QS-21, Adacel 2.5 mcg pertussis toxin) | weight loss (body weight) [3] | liver histopathology (hepatocellular cytoplasmic vacuolization) [3, 7] | tolerated (maximum) dose in cancer patients ([4]; cancer patients, above this dose local and systemic side effects) [µg] | maximum dose for healthy patients ([4]; healthy patients) [µg] | highest practical tolerable dose ([4]; well (non-cancer) adult and child recipients) [µg] | body mass lost on average ([2]; 20 mcg QS-21)
CC1O[C@@H](OC2C(O)[C@@H](NC(=O)CCCCCCCCCCC(=O)O)C(CO)O[C@H]2OC(=O)[C@]23CCC(C)(C)CC2C2=CCC4C5(C)CC[C@H](O)C(C)(C=O)C5CC[C@]4(C)C2(C)CC3O)C(O)C(O)[C@H]1O[C@@H]1OC[C@@H](O)C(O)C1O (stereo partly drawn) [Compound I-4] | 52,344 | further increased | 70 | much lower or undetectable hemolytic activity | increased stability | without detectable degradation | No weight loss | 4 | 5 | 5 | No changes | no other mice | No weight loss | No changes at all |  |  |  | 
QS-21 [reference compound] |  |  | 10 | highly hemolytically active |  | 20% |  |  |  |  | No changes |  | 8-9% | Mild vacuolar changes | 100 to 150 | ~50 | 25 to 50 | 8-10%
